# In ChEMBL document CHEMBL4622952, “Synthesis and biological evaluation of Schizandrin derivatives as tubulin polymerization inhibitors” (Bioorg Med Chem Lett, 2020):
# The source made the active and inactive calls. The rule behind the calls is not given here.
# Assays:
# [1] = Induction of apoptosis in human RKOP3 cells assessed as necrotic cells at 3.3 uM measured after 48 hrs by annexinV-FITC/propidium iodide staining based flow cytometry analysis (reference value: 0 %); type: functional
# [2] = Induction of apoptosis in human RKOP3 cells assessed as necrotic cells at 5 uM measured after 48 hrs by annexinV-FITC/propidium iodide staining based flow cytometry analysis (reference value: 0 %); type: functional
# [3] = Induction of apoptosis in human RKOP3 cells assessed as early apoptotic cells at 3.3 uM measured after 48 hrs by annexinV-FITC/propidium iodide staining based flow cytometry analysis (reference value: 1.8 %); type: functional
# [4] = Cell cycle arrest in human RKOP3 cells assessed as accumulation at G0/G1 phase at 1.5 uM measured after 24 hrs by propidium iodide staining based flow cytometry analysis (reference value: 59.59 %); type: functional
# [5] = Cell cycle arrest in human RKOP3 cells assessed as accumulation at G0/G1 phase at 5 uM measured after 24 hrs by propidium iodide staining based flow cytometry analysis (reference value: 59.59 %); type: functional
# [6] = Induction of apoptosis in human RKOP3 cells assessed as necrotic cells at 1.5 uM measured after 48 hrs by annexinV-FITC/propidium iodide staining based flow cytometry analysis (reference value: 0 %); type: functional
# [7] = Induction of apoptosis in human RKOP3 cells assessed as live cells at 5 uM measured after 48 hrs by annexinV-FITC/propidium iodide staining based flow cytometry analysis (reference value: 98.19 %); type: functional
# [8] = Cell cycle arrest in human RKOP3 cells assessed as accumulation at G0/G1 phase at 3.3 uM measured after 24 hrs by propidium iodide staining based flow cytometry analysis (reference value: 59.59 %); type: functional
# [9] = Induction of apoptosis in human RKOP3 cells assessed as early apoptotic cells at 5 uM measured after 48 hrs by annexinV-FITC/propidium iodide staining based flow cytometry analysis (reference value: 1.8 %); type: functional
# [10] = Induction of apoptosis in human RKOP3 cells assessed as late apoptotic cells at 3.3 uM measured after 48 hrs by annexinV-FITC/propidium iodide staining based flow cytometry analysis (reference value: 0.01 %); type: functional
# Tubulin (Homo sapiens) [11] = biological target: T1, Tubulin (Homo sapiens) (UniProt P68371+Q9H4B7+P0DPH7+P68366+Q13509+Q71U36+P04350+Q3ZCM7+P07437+P68363+Q9BQE3+Q6PEY2+Q13885+Q9BVA1+Q9BUF5); test: Inhibition of tubulin […] in human DU145 cells assessed as increase in soluble fraction of tubulin at […] measured after 24 hrs by Western blot analysis; type: cell-based; conditions: DU-145
# [12] = Induction of apoptosis in human RKOP3 cells assessed as late apoptotic cells at 5 uM measured after 48 hrs by annexinV-FITC/propidium iodide staining based flow cytometry analysis (reference value: 0.01 %); type: functional
# [13] = Induction of apoptosis in human RKOP3 cells assessed as live cells at 1.5 uM measured after 48 hrs by annexinV-FITC/propidium iodide staining based flow cytometry analysis (reference value: 98.19 %); type: functional
# Homo sapiens = organism: Homo sapiens; test: (§1) Antiproliferative activity against human RKOP3 cells assessed as reduction in cell viability measured after 48 hrs by MTT assay; type: functional, cell-based
# [14] = as §1; type: functional, cell-based
# HEK293 = test: Cytotoxicity against human HEK293 cells assessed as reduction in cell viability measured after 48 hrs by MTT assay; type: cell-based; conditions: Homo sapiens, HEK293, 48 h; read-out: IC50
# [15] = Induction of apoptosis in human RKOP3 cells assessed as live cells at 3.3 uM measured after 48 hrs by annexinV-FITC/propidium iodide staining based flow cytometry analysis (reference value: 98.19 %); type: functional
# [16] = Induction of apoptosis in human RKOP3 cells assessed as late apoptotic cells at 1.5 uM measured after 48 hrs by annexinV-FITC/propidium iodide staining based flow cytometry analysis (reference value: 0.01 %); type: functional
# DU-145 = test: Antiproliferative activity against human DU145 cells assessed as reduction in cell viability measured after 48 hrs by MTT assay; type: functional, cell-based
# [17] = Induction of apoptosis in human RKOP3 cells assessed as early apoptotic cells at 1.5 uM measured after 48 hrs by annexinV-FITC/propidium iodide staining based flow cytometry analysis (reference value: 1.8 %); type: functional
# HeLa = test: Antiproliferative activity against human HeLa cells assessed as reduction in cell viability measured after 48 hrs by MTT assay; type: functional, cell-based
# Tubulin (Homo sapiens) [18] = biological target: T1, Tubulin (Homo sapiens); test: Inhibition of tubulin polymerization in human HeLa cells assessed as disruption of microtubule network at 10 uM measured after 24 hrs by immunofluorescence assay; type: cell-based
# A549 = test: Antiproliferative activity against human A549 cells assessed as reduction in cell viability measured after 48 hrs by MTT assay; type: functional, cell-based
compound,measurement,setting,value
CCCCCCCCCC(=O)O/N=C1\C=C2C[C@H](C)[C@@]3(C)Cc4cc(OC)c(OC)c(OC)c4C23C(OC)=C1OC (stereo partly specified),Activity,[1],0.02%
same,Activity,[2],0.04%
same,Activity,[3],9.05%
same,Activity,[4],60.68%
same,Activity,[5],50.56%
same,Activity,[6],0%
same,Activity,[7],76.06%
same,Activity,[8],55.32%
same,Activity,[9],21.6%
same,Activity,[10],0.29%
same,inhibition,Tubulin (Homo sapiens) [11],Active
same,Activity,[12],2.3%
same,Activity,[13],92.41%
same,inhibition,Homo sapiens,Dose-dependent effect
same,IC50,[14],3.35 µM
same,IC50,HEK293,84.5 µM
same,Activity,[15],90.64%
same,Activity,[16],0.57%
same,inhibition,DU-145,Dose-dependent effect
same,IC50,"DU-145; DU-145, 48 h",10.5 µM
same,Activity,[17],7.02%
same,IC50,HeLa,60.2 µM
same,inhibition,HeLa,Dose-dependent effect
same,inhibition,Tubulin (Homo sapiens) [18],Active
same,inhibition,A549,Dose-dependent effect
same,IC50,"A549; A549, 48 h",12.3 µM
